In the NIST ThermoML archive (doi:10.1016/j.jct.2011.03.013):
“And” between values parts separate entries of the source, which are not always exact repeats. Equal entries are not always repeated.

Conditions: Crystal; for vapor or sublimation pressure: Calculated from knudsen effusion weight loss; for molar enthalpy of sublimation: 298.15 K, Drop Calorimetry

N#Cc1cccc2ccccc12 [1-cyanonaphthalene]
Conditions	molar enthalpy of sublimation [kcal/mol]	vapor or sublimation pressure
–	21.1	–
289.1 K	–	0.00012 kPa and 0.000125 kPa
291.12 K	–	0.000163 kPa and 0.000156 kPa and 0.000157 kPa
293.12 K	–	0.000208 kPa and 0.0002 kPa and 0.000196 kPa
295.12 K	–	0.000275 kPa and 0.000251 kPa and 0.000265 kPa
297.13 K	–	0.000324 kPa and 0.000319 kPa
299.13 K	–	0.000426 kPa and 0.000418 kPa and 0.000416 kPa
301.12 K	–	0.000535 kPa and 0.000532 kPa and 0.000527 kPa
303.3 K	–	0.000724 kPa and 0.00069 kPa and 0.000686 kPa
305.12 K	–	0.000843 kPa and 0.000849 kPa and 0.00084 kPa
307 K	–	0.001033 kPa and 0.001044 kPa and 0.001034 kPa

N#Cc1ccc2ccccc2c1 [2-naphthalenecarbonitrile]
Conditions	molar enthalpy of sublimation [kcal/mol]	vapor or sublimation pressure
–	21.7	–
296.18 K	–	9e-05 kPa and 9.2e-05 kPa and 9.1e-05 kPa
298.11 K	–	0.000115 kPa and 0.000117 kPa and 0.000116 kPa
300.19 K	–	0.000159 kPa and 0.000153 kPa and 0.000154 kPa
302.18 K	–	0.000196 kPa and 0.000201 kPa and 0.000197 kPa
304.1 K	–	0.000245 kPa and 0.000244 kPa
306.18 K	–	0.000319 kPa and 0.000303 kPa and 0.000304 kPa
308.15 K	–	0.000391 kPa and 0.000388 kPa and 0.000396 kPa
310.09 K	–	0.000487 kPa and 0.000485 kPa and 0.000491 kPa
312.19 K	–	0.000636 kPa and 0.000617 kPa and 0.000618 kPa
314.16 K	–	0.000783 kPa and 0.000762 kPa and 0.000803 kPa
316.1 K	–	0.000948 kPa and 0.000947 kPa and 0.000994 kPa
